Data: article PMC10401832 (Biotechnology for Biofuels and Bioproducts, 2023)

B1: BsAlaDH (Bacillus subtilis subsp. subtilis str. 168) (protein)
chain: MIIGVPKEIKNNENRVALTPGGVSQLISNGHRVLVETGAGLGSGFENEAYESAGAEIIADPKQVWDAEMVMKVKEPLPEEYVYFRKGLVLFTYLHLAAEPELAQALKDKGVTAIAYETVSEGRTLPLLTPMSEVAGRMAAQIGAQFLEKPKGGKGILLAGVPGVSRGKVTIIGGGVVGTNAAKMAVGLGADVTIIDLNADRLRQLDDIFGHQIKTLISNPVNIADAVAEADLLICAVLIPGAKAPTLVTEEMVKQMKPGSVIVDVAIDQGGIVETVDHITTHDQPTYEKHGVVHYAVANMPGAVPRTSTIALTNVTVPYALQIANKGAVKALADNTALRAGLNTANGHVTYEAVARDLGYEYVPAEKALQDESSVAGA
notes: primers imply N-term MIIGVP, C-term SVAGA; about 45-55 kDa; possible hexamer (model)

What was measured:
GsAlaDH = target: T1, GsAlaDH (Geobacillus stearothermophilus, UniProt P17557); test: spectrophotometric NADH change at […] nm; format: biochemical; settings: oxidative deamination, NAD+, Na2CO3-NaHCO3 pH 10.0; Table 1 heads this block 'Reductive reaction' but text assigns it to L-alanine
T1 construct: gene ald; possible hexamer (model)
T1 sequence (P17557 whole entry): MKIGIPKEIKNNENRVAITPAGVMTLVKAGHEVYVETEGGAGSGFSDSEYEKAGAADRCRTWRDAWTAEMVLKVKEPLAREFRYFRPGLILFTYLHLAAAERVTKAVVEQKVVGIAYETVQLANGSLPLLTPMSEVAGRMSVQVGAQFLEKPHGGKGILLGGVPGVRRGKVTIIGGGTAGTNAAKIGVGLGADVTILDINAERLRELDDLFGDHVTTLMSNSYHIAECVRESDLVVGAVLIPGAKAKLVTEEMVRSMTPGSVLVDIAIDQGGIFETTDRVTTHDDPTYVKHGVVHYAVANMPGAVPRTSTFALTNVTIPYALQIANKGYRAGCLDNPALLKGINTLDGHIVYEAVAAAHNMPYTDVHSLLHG

purified protein = substrate: CC(=O)C(=O)O; test: purified protein; format: biochemical, Bacillus subtilis; settings: reductive amination, NADH and NH4Cl, Tris-HCl pH 8.0, Table 1 heads this block 'Oxidative reaction' but text assigns it to pyruvate

Molecule | Km (GsAlaDH) [µM] | Km (purified protein) [µM]
C[C@H](N)C(=O)O [L-alanine] | 810 ± 250 | 
B1 |  | 70 ± 30
